Where “and” joins values, the source holds several entries; their conditions need not be identical. Identical values can stand only once.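 All cell lines were grown in 96-well plates and treated with compound for 48 hours. At the GI50, growth is halved. The concentration for full growth arrest is given as TGI.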
Tests used:
Assay in all cases: inhibition of tumour cell growth, NCI panel, 48 h
HOP-92 NSCLC = system: HOP-92 NSCLC
HCT-116 colon = system: HCT-116 colon
A498 renal = system: A498 renal
SNB-19 CNS = system: SNB-19 CNS
ACHN renal = system: ACHN renal
SF-539 CNS = system: SF-539 CNS
HOP-62 NSCLC = system: HOP-62 NSCLC
786-0 renal = system: 786-0 renal
U251 CNS = system: U251 CNS
HCT-15 colon = system: HCT-15 colon

SMILES | GI50 (HOP-92 NSCLC) | TGI (HOP-92 NSCLC) | GI50 (HCT-116 colon) | TGI (HCT-116 colon) | GI50 (A498 renal) | TGI (A498 renal) | GI50 (SNB-19 CNS) | TGI (SNB-19 CNS) | GI50 (ACHN renal) | TGI (ACHN renal) | GI50 (SF-539 CNS) | TGI (SF-539 CNS) | GI50 (HOP-62 NSCLC) | TGI (HOP-62 NSCLC) | GI50 (786-0 renal) | TGI (786-0 renal) | TGI (U251 CNS) | TGI (HCT-15 colon) | GI50 (U251 CNS) | GI50 (HCT-15 colon)
COC(=O)NC1C(C)OC(OC2C/C=C(/C)C3C=CC4C(OC5CC(OC6CC(O)C(OC7CC(O)C(OC)C(C)O7)C(C)O6)C(O)C(C)O5)C(C)CC(C)C4C3(C)/C(O)=C3\C(=O)OC4(CC(C)C(CO)=CC4/C=C\2C)C3=O)CC1(C)[N+](=O)[O-] (stereo not drawn) | 9.95 µM | 19.7 µM and 32.7 µM | 8040 nM | 14.8 µM and 23.4 µM | 9.82 µM | 22.8 µM and 29.8 µM | 15.9 µM | 50 µM and 52.4 µM | 14.8 µM | 35.5 µM and 30.6 µM | 11600 nM | 24.9 µM and 37.7 µM | 9620 nM | 18.4 µM and 46.3 µM | 16800 nM | 21.9 µM and 32.3 µM | 32.2 µM and 27.6 µM | 50 µM and 40.8 µM |  | 
C=C1C(=O)O[C@@H]2C[C@@]3(C)CCC[C@H](C)C3=C[C@H]12 |  | 11.2 µM |  | 16.2 µM |  | 24.9 µM |  | 30.1 µM |  | 21.6 µM |  | 22.5 µM |  | 24.7 µM |  | 12.7 µM | 21.5 µM | 17.1 µM |  | 
COc1ccc(-c2[nH]c3ccccc3c2C=C(C#N)C#N)cc1 | 1.21 µM | > 100 µM | 410 nM | > 21.1 µM | 0.294 µM | 2.12 µM | 1.3 µM | 36.5 µM | 2.26 µM | > 100 µM | 262 nM | 0.795 µM | 962 nM | 21.8 µM | 715 nM | > 32.1 µM | > 100 µM | > 100 µM | 479 nM | 587 nM
CC[C@H](C)[C@H]1NC(=O)[C@@H](N[C@](C)(O)[C@@H](N)CC(C)C)[C@@H](C)OC(=O)[C@H](Cc2ccc(OC)cc2)N(C)C(=O)[C@@H]2CCCN2C(=O)[C@H](CC(C)C)NC(=O)[C@@H](C)C(=O)[C@H](C(C)C)OC(=O)C[C@@H]1O | 0.0262 µM | 0.391 µM | 6.08 nM | 50 µM | 0.037 µM | 0.403 µM | 0.0137 µM | 0.461 µM | 0.0428 µM | 2.67 µM | 16.5 nM | 0.185 µM | 14.6 nM | 0.601 µM | 22.5 nM | 2.94 µM | 0.188 µM | 22.9 µM | 11.9 nM | 217 nM
CC1=NN(c2ccccc2)C(=O)C1N=Nc1ccc([As](=O)(O)O)c(O)c1 (stereo not drawn) |  | > 100 µM |  | > 100 µM |  | > 100 µM |  | > 100 µM |  | > 100 µM |  | > 100 µM |  | > 100 µM |  | > 100 µM | > 100 µM | > 100 µM |  | 
Cc1cc(O)cc2oc(=O)c3c(O)cc(O)cc3c12 |  | 76.3 µM |  | 37.6 µM |  | > 100 µM |  | 76 µM |  | 71.1 µM |  | 49.2 µM |  | 50.9 µM |  | > 100 µM | > 100 µM | 45.4 µM |  | 
Cc1ccc(NC(=O)C(=O)C2C(=O)N(c3ccccc3)N=C2N)cc1C (stereo not drawn) |  | > 100 µM |  | > 100 µM |  | > 100 µM |  | > 100 µM |  | > 100 µM |  | > 100 µM |  | > 100 µM |  | > 100 µM | > 100 µM | > 100 µM |  | 
Oc1ccc2cc(Br)ccc2c1-c1c(O)ccc2cc(Br)ccc12 | 3.01 µM | 7.93 µM | 1950 nM | 4.01 µM | 2.95 µM | 10.3 µM | 3.92 µM | 15.9 µM | 3.02 µM | 11.3 µM | 3340 nM | 12 µM | 2620 nM | 11.1 µM | 2380 nM | 4.64 µM | 12.9 µM | 12.1 µM | 3930 nM | 3200 nM
CCOc1cccc(/C=N/NC(=O)c2ccc(Nc3ccnc(C(F)(F)F)c3)cc2)c1O | 1.01 µM | > 64.2 µM | 367 nM | > 71.5 µM | 4.65 µM | > 58 µM | 4.69 µM | > 100 µM | 0.728 µM | > 79.1 µM | 1100 nM | 11.6 µM | 2230 nM | > 78.5 µM | 951 nM | > 94.3 µM | > 58 µM | > 100 µM | 906 nM | 515 nM
C1=Cc2ccccc2Nc2ccccc21 | 86.1 µM | > 100 µM | > 100000 nM | > 100 µM | > 100 µM | > 100 µM | > 100 µM | > 100 µM | > 100 µM | > 100 µM | > 100000 nM | > 100 µM | > 100000 nM | > 100 µM | > 100000 nM | > 100 µM | > 100 µM | > 100 µM | > 100000 nM | > 100000 nM
CC1=C(C(=O)Nc2ccc(F)c(Cl)c2)C(c2ccccc2Cl)NC(=S)N1 (stereo not drawn) | > 50 µM | > 50 µM | 22400 nM | > 50 µM | 12.9 µM | 48.1 µM | 40 µM | > 50 µM | 17.5 µM | > 50 µM | > 50000 nM | > 50 µM | > 50000 nM | > 50 µM | 30000 nM | > 50 µM | > 50 µM | > 50 µM | 25600 nM | 16200 nM
COc1cc(O)c2c(O)c3c(c4c2c1[C@]1(C4)C(C)=CCCC1(C)C)[C@H](O)[C@@]1(O)CC(=O)C(C(N)=O)=C(O)[C@@]1(O)C3=O |  | 1.6 µM |  | 1.3 µM |  | 0.743 µM |  | 1.94 µM |  | 1.19 µM |  | 0.965 µM |  | 1.51 µM |  | 1.62 µM | 1.17 µM | 1.45 µM |  | 
CC1=NN(c2ccccc2)C(=O)C1=C1SCCS1 |  | > 85.8 µM |  | > 64.6 µM |  | > 100 µM |  | > 100 µM |  | > 100 µM |  | > 100 µM |  | > 100 µM |  | > 100 µM | > 90.3 µM | > 59.7 µM |  | 
COc1ccc2c(=O)c(C)c(-c3ccccc3)oc2c1CN(C)C |  | > 100 µM |  | > 100 µM |  | > 100 µM |  | > 100 µM |  | > 100 µM |  | > 100 µM |  | > 100 µM |  | > 100 µM | > 100 µM | > 100 µM |  | 
CCOC(=O)C12CCCC1(O)N(NC(=O)c1ccccc1)C(C)=C2C(=O)OC (stereo not drawn) |  | > 100 µM |  | > 100 µM |  | > 100 µM |  | > 100 µM |  | > 100 µM |  | > 100 µM |  | > 100 µM |  | > 100 µM | > 100 µM | > 100 µM |  | 

— PubChem BioAssay (NCI)
